Patent US20240025884A1 (Dong-A ST Co., Ltd., priority 2022, published 2024)

molecular target: GCN2 (Homo sapiens (Human), UniProt Q9P2K8); test: GCN2 Biochemical Assay (TR-FRET, GFP-eIF2S1 substrate phosphorylation); settings: read-out: IC50 (GCN2 Inhibitory Activity)
Procedure, shortened: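 TR-FRET readout (Ex 340, Em 490/520 nm) after 2–3 h with Tb-labelled phospho-eIF2S1 antibody in stop mix, following a 70 min room-temperature kinase step. Reaction: in-house GCN2, GFP-eIF2S1, ATP, tRNA in Tris pH 7.5 (2× stocks 1.6 nM, 50 nM, 0.2 mM); compounds tested at 10 concentrations, with a phospho-substrate artifact counter-plate.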

Chain of GCN2 (Q9P2K8 whole entry): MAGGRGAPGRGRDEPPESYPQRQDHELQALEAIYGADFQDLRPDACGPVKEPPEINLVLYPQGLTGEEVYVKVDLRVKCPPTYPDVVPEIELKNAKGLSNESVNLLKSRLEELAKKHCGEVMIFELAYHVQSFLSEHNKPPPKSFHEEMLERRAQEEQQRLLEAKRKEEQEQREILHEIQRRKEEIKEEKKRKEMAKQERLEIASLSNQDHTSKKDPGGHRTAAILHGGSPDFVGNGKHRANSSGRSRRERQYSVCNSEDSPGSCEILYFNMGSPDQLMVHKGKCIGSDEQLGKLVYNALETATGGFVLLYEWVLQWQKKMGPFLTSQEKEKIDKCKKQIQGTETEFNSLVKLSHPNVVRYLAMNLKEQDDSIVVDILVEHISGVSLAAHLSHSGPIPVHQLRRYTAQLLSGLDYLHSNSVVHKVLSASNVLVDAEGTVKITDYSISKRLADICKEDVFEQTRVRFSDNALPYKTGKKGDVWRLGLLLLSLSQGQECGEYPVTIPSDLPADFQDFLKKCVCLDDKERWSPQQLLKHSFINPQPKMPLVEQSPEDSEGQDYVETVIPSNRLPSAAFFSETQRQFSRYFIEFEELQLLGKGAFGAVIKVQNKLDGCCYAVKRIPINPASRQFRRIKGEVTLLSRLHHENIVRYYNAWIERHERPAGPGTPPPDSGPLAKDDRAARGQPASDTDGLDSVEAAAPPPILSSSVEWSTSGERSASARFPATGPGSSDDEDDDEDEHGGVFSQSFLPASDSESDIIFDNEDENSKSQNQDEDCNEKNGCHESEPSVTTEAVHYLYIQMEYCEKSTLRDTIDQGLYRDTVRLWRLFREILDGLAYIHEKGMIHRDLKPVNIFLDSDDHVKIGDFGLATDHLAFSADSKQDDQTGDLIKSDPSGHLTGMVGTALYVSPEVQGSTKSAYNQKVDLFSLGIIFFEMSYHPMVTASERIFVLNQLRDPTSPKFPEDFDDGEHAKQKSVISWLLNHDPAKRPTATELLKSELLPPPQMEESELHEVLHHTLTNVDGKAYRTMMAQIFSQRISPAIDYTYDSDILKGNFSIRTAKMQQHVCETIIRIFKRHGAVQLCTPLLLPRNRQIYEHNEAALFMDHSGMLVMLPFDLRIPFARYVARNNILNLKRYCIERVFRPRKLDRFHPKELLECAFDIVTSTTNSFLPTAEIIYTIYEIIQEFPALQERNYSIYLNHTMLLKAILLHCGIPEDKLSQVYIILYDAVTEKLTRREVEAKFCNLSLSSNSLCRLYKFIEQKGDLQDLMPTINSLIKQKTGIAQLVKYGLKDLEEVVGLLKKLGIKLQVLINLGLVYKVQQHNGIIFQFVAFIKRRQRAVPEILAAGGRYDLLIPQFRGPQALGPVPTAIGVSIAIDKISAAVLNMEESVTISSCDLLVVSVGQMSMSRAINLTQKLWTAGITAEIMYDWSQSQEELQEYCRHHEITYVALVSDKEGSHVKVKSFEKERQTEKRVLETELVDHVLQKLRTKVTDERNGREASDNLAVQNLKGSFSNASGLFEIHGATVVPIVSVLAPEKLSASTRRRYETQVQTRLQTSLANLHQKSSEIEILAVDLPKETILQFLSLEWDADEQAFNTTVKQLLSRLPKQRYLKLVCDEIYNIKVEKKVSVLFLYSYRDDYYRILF

Row | SMILES | IC50 [nM]
1 | Cc1cnc(Nc2cc(C)n(C)n2)nc1-c1c[nH]c2c(N3Cc4cccc(NS(=O)(=O)c5ccccc5)c4C3=O)cccc12 [Example 340, N-(2-(3-(2-((1,5-dimethyl-1H-pyrazol-3-yl)amino)-5-methylpyrimidin-4-yl)-1H-indol-7-yl)-3-oxoisoindolin-4-yl)benzenesulfonamide] | 100 to 1000
2 | Cc1ccc(S(=O)(=O)Nc2cccc3c2CN(c2cccc4c(-c5nc(Nc6cc(C)n(C)n6)ncc5C)c[nH]c24)C3=O)cc1 [Example 343, N-(2-(3-(2-((1,5-dimethyl-1H-pyrazol-3-yl)amino)-5-methylpyrimidin-4-yl)-1H-indol-7-yl)-1-oxoisoindolin-4-yl)-4-methylbenzenesulfonamide] | 10 to 100
3 | Cc1cc(S(=O)(=O)Nc2cccc3c2CN(c2cccc4c(-c5nc(Nc6cc(C)n(C)n6)ncc5C)c[nH]c24)C3=O)ccc1F [Example 345, N-(2-(3-(2-((1,5-dimethyl-1H-pyrazol-3-yl)amino)-5-methylpyrimidin-4-yl)-1H-indol-7-yl)-1-oxoisoindolin-4-yl)-4-fluoro-3-methylbenzenesulfonamide] | 10 to 100
4 | Cc1cnc(Nc2cc(C)n(C)n2)nc1-c1c[nH]c2c(N3Cc4cccc(Nc5ccccc5)c4C3=O)cccc12 [Example 346, 2-(3-(2-((1,5-dimethyl-1H-pyrazol-3-yl)amino)-5-methylpyrimidin-4-yl)-1H-indol-7-yl)-7-(phenylamino)isoindolin-1-one] | 100 to 1000
5 | Cc1cnc(Nc2cc(C)n(C)n2)nc1-c1c[nH]c2c(N3Cc4cccc(N5CCOCC5)c4C3=O)cccc12 [Example 347, 2-(3-(2-((1,5-dimethyl-1H-pyrazol-3-yl)amino)-5-methylpyrimidin-4-yl)-1H-indol-7-yl)-7-morpholinoisoindolin-1-one] | 10 to 100
6 | Cc1cnc(Nc2cc(C)n(C)n2)nc1-c1c[nH]c2c(N3Cc4cccc(N5CCN(C)CC5)c4C3=O)cccc12 [Example 348, 2-(3-(2-((1,5-dimethyl-1H-pyrazol-3-yl)amino)-5-methylpyrimidin-4-yl)-1H-indol-7-yl)-7-(4-methylpiperazin-1-yl)isoindolin-1-one] | 10 to 100
7 | Cc1cnc(Nc2cc(C)n(C)n2)nc1-c1c[nH]c2c(N3Cc4cccc(N(C)C)c4C3=O)cccc12 [Example 349, 2-(3-(2-((1,5-dimethyl-1H-pyrazol-3-yl)amino)-5-methylpyrimidin-4-yl)-1H-indol-7-yl)-7-(dimethylamino)isoindolin-1-one] | 10 to 100
8 | Cc1cnc(Nc2cc(C)n(C)n2)nc1-c1c[nH]c2c(N3Cc4cccc(NCc5ccccc5)c4C3=O)cccc12 [Example 350, 7-(benzylamino)-2-(3-(2-((1,5-dimethyl-1H-pyrazol-3-yl)amino)-5-methylpyrimidin-4-yl)-1H-indol-7-yl)isoindolin-1-one] | 100 to 1000
9 | Cc1cnc(Nc2cc(C)n(C)n2)nc1-c1c[nH]c2c(N3Cc4cccc(NCC5CC5)c4C3=O)cccc12 [Example 351, 7-((cyclopropylmethyl)amino)-2-(3-(2-((1,5-dimethyl-1H-pyrazol-3-yl)amino)-5-methylpyrimidin-4-yl)-1H-indol-7-yl)isoindolin-1-one] | 100 to 1000
10 | Cc1cnc(Nc2cc(C)n(C)n2)nc1-c1c[nH]c2c(N3Cc4c(NCC5CC5)cccc4C3=O)cccc12 [Example 353, 4-((cyclopropylmethyl)amino)-2-(3-(2-((1,5-dimethyl-1H-pyrazol-3-yl)amino)-5-methylpyrimidin-4-yl)-1H-indol-7-yl)isoindolin-1-one] | 10 to 100
11 | Cc1cnc(Nc2cc(C)n(C)n2)nc1-c1c[nH]c2c(N3Cc4c(NCc5ccccc5)cccc4C3=O)cccc12 [Example 354, 4-(benzylamino)-2-(3-(2-((1,5-dimethyl-1H-pyrazol-3-yl)amino)-5-methylpyrimidin-4-yl)-1H-indol-7-yl)isoindolin-1-one] | 10 to 100
12 | Cc1cnc(Nc2cc(C)n(C)n2)nc1-c1c[nH]c2c(N3Cc4ccc(C#Cc5ccccc5)cc4C3=O)cccc12 [Example 355] | > 1000
13 | Cc1cnc(Nc2cc(C)n(C)n2)nc1-c1c[nH]c2c(N3Cc4c(C#Cc5ccccc5)cccc4C3=O)cccc12 [Example 356, 2-(3-(2-((1,5-dimethyl-1H-pyrazol-3-yl)amino)-5-methylpyrimidin-4-yl)-1H-indol-7-yl)-4-(phenylethynyl)isoindolin-1-one] | 100 to 1000
14 | Cc1cnc(Nc2cc(C)n(C)n2)nc1-c1c[nH]c2c(N3Cc4c(C#Cc5ccc(N)cc5)cccc4C3=O)cccc12 [Example 357, 4-((4-aminophenyl)ethynyl)-2-(3-(2-((1,5-dimethyl-1H-pyrazol-3-yl)amino)-5-methylpyrimidin-4-yl)-1H-indol-7-yl)isoindolin-1-one] | 10 to 100
15 | Cc1cnc(Nc2cc(C)n(C)n2)nc1-c1c[nH]c2c(N3Cc4c(/C=C/C(=O)N(C)C)ccc(F)c4C3=O)cccc12 [Example 359, (E)-3-(2-(3-(2-((1,5-dimethyl-1H-pyrazol-3-yl)amino)-5-methylpyrimidin-4-yl)-1H-indol-7-yl)-7-fluoro-1-oxoisoindolin-4-yl)-N,N-dimethylacrylamide] | 10 to 100

Now from value to compound:

Row | IC50 [nM] | SMILES
16 | 10 to 100 | Cc1cnc(Nc2cc(C)n(C)n2)nc1-c1c[nH]c2c(N3Cc4c(NC(=O)C5CCCC5)cccc4C3=O)cccc12 [Example 336, N-(2-(3-(2-((1,5-dimethyl-1H-pyrazol-3-yl)amino)-5-methylpyrimidin-4-yl)-1H-indol-7-yl)-1-oxoisoindolin-4-yl)cyclopentanecarboxamide]
17 | < 10 | Cc1cnc(Nc2cc(C)n(C)n2)nc1-c1c[nH]c2c(N3Cc4c(NC(=O)C5CCOCC5)cccc4C3=O)cccc12 [Example 337, N-(2-(3-(2-((1,5-dimethyl-1H-pyrazol-3-yl)amino)-5-methylpyrimidin-4-yl)-1H-indol-7-yl)-1-oxoisoindolin-4-yl)tetrahydro-2H-pyran-4-carboxamide]
18 | 10 to 100 | Cc1cnc(Nc2cc(C)n(C)n2)nc1-c1c[nH]c2c(N3Cc4c(NC(=O)c5ccoc5)cccc4C3=O)cccc12 [Example 338, N-(2-(3-(2-((1,5-dimethyl-1H-pyrazol-3-yl)amino)-5-methylpyrimidin-4-yl)-1H-indol-7-yl)-1-oxoisoindolin-4-yl)furan-3-carboxamide]
19 | < 10 | Cc1cnc(Nc2cc(C)n(C)n2)nc1-c1c[nH]c2c(N3Cc4c(NC(=O)c5cc(O)ncn5)cccc4C3=O)cccc12 [Example 339, N-(2-(3-(2-((1,5-dimethyl-1H-pyrazol-3-yl)amino)-5-methylpyrimidin-4-yl)-1H-indol-7-yl)-1-oxoisoindolin-4-yl)-6-hydroxypyrimidine-4-carboxamide]
20 | < 10 | Cc1cnc(Nc2cc(C)n(C)n2)nc1-c1c[nH]c2c(N3Cc4c(NS(=O)(=O)c5ccccc5)cccc4C3=O)cccc12 [Example 341, N-(2-(3-(2-((1,5-dimethyl-1H-pyrazol-3-yl)amino)-5-methylpyrimidin-4-yl)-1H-indol-7-yl)-1-oxoisoindolin-4-yl)benzenesulfonamide]
21 | < 10 | Cc1cnc(Nc2cc(C)n(C)n2)nc1-c1c[nH]c2c(N3Cc4c(NS(C)(=O)=O)cccc4C3=O)cccc12 [Example 342, N-(2-(3-(2-((1,5-dimethyl-1H-pyrazol-3-yl)amino)-5-methylpyrimidin-4-yl)-1H-indol-7-yl)-1-oxoisoindolin-4-yl)methanesulfonamide]
22 | < 10 | Cc1cnc(Nc2cc(C)n(C)n2)nc1-c1c[nH]c2c(N3Cc4c(NS(=O)(=O)C(C)C)cccc4C3=O)cccc12 [Example 344, N-(2-(3-(2-((1,5-dimethyl-1H-pyrazol-3-yl)amino)-5-methylpyrimidin-4-yl)-1H-indol-7-yl)-1-oxoisoindolin-4-yl)propane-2-sulfonamide]
23 | < 10 | Cc1cnc(Nc2cc(C)n(C)n2)nc1-c1c[nH]c2c(N3Cc4c(cccc4N4CCOCC4)C3=O)cccc12 [Example 352, 2-(3-(2-((1,5-dimethyl-1H-pyrazol-3-yl)amino)-5-methylpyrimidin-4-yl)-1H-indol-7-yl)-4-morpholinoisoindolin-1-one]
24 | < 10 | Cc1cnc(Nc2cc(C)n(C)n2)nc1-c1c[nH]c2c(N3Cc4c(/C=C/C(N)=O)cccc4C3=O)cccc12 [Example 358, (E)-3-(2-(3-(2-((1,5-dimethyl-1H-pyrazol-3-yl)amino)-5-methylpyrimidin-4-yl)-1H-indol-7-yl)-1-oxoisoindolin-4-yl)acrylamide]
25 | < 10 | Cc1cnc(Nc2cc(C)n(C)n2)nc1-c1c[nH]c2c(N3Cc4c(/C=C/C(=O)N(C)C)cccc4C3=O)cccc12 [Example 360, (E)-3-(2-(3-(2-((1,5-dimethyl-1H-pyrazol-3-yl)amino)-5-methylpyrimidin-4-yl)-1H-indol-7-yl)-1-oxoisoindolin-4-yl)-N,N-dimethylacrylamide]
26 | < 10 | C/C(=C\c1cccc2c1CN(c1cccc3c(-c4nc(Nc5cc(C)n(C)n5)ncc4C)c[nH]c13)C2=O)C(N)=O [Example 361, (E)-3-(2-(3-(2-((1,5-dimethyl-1H-pyrazol-3-yl)amino)-5-methylpyrimidin-4-yl)-1H-indol-7-yl)-1-oxoisoindolin-4-yl)-2-methylacrylamide]
27 | < 10 | CC(=O)/C=C/c1cccc2c1CN(c1cccc3c(-c4nc(Nc5cc(C)n(C)n5)ncc4C)c[nH]c13)C2=O [Example 362, (E)-2-(3-(2-((1,5-dimethyl-1H-pyrazol-3-yl)amino)-5-methylpyrimidin-4-yl)-1H-indol-7-yl)-4-(3-oxobut-1-en-1-yl)isoindolin-1-one]
28 | < 10 | CNC(=O)/C=C/c1cccc2c1CN(c1cccc3c(-c4nc(Nc5cc(C)n(C)n5)ncc4C)c[nH]c13)C2=O [Example 363, (E)-3-(2-(3-(2-((1,5-dimethyl-1H-pyrazol-3-yl)amino)-5-methylpyrimidin-4-yl)-1H-indol-7-yl)-1-oxoisoindolin-4-yl)-N-methylacrylamide]
29 | < 10 | CCNC(=O)/C=C/c1cccc2c1CN(c1cccc3c(-c4nc(Nc5cc(C)n(C)n5)ncc4C)c[nH]c13)C2=O [Example 364, (E)-3-(2-(3-(2-((1,5-dimethyl-1H-pyrazol-3-yl)amino)-5-methylpyrimidin-4-yl)-1H-indol-7-yl)-1-oxoisoindolin-4-yl)-N-ethylacrylamide]
